Measurements published in ChEMBL document CHEMBL4665674, “Medicinal Chemistry Strategies for the Development of Kinase Inhibitors Targeting Point Mutations” (J Med Chem, 2020).
pIC50: −log10 of the molar value.

What was measured:
LoVo = test: cells; type: functional, cell-based; conditions: Homo sapiens
NCI-H1975 = test: cells; conditions: Homo sapiens
[1] = Induction of CRBN-mediated degradation of human BTK C481A mutant expressed in human HeLa cells incubated for 4 days by Western blot analysis; type: cell-based; conditions: 96 h
[2] = target: T1, Protein cereblon/Tyrosine-protein kinase BTK (Homo sapiens, UniProt Q06187+Q96SW2); test: Induction of CRBN-mediated degradation of wild type human BTK expressed in human HeLa cells incubated for 4 days by Western blot analysis; type: cell-based
[3] = Induction of CRBN-mediated degradation of human BTK C481G mutant expressed in human HeLa cells incubated for 4 days by Western blot analysis; type: cell-based; conditions: 96 h
[4] = Induction of CRBN-mediated degradation of human BTK C481W mutant expressed in human HeLa cells incubated for 4 days by Western blot analysis; type: cell-based; conditions: 96 h
[5] = Induction of CRBN-mediated degradation of human BTK C481T mutant expressed in human HeLa cells incubated for 4 days by Western blot analysis; type: cell-based; conditions: 96 h
[6] = target: T2, Protein cereblon/Tyrosine-protein kinase BTK (Homo sapiens, UniProt Q06187+Q96SW2, C481S); test: Induction of CRBN-mediated degradation of human BTK C481S mutant expressed in human HeLa cells incubated for 4 days by Western blot analysis; type: cell-based
[7] = Antiproliferative activity against human NCI-H3122-CR1 cells harboring ALK L1196M mutant after 72 hrs by CellTiter-Glo assay; type: functional
[8] = Antiproliferative activity against human MGH021-4 cells harboring ALK G1269A mutant after 72 hrs by CellTiter-Glo assay; type: functional; conditions: MGH0214
[9] = Inhibition of LMNA-TRKA G595R (unknown origin) expressed in mouse Ba/F3 cells assessed as antiproliferative activity incubated for 72 hrs by CellTiter-Glo luciferase-based ATP detection assay; type: cell-based; conditions: BaF3, 72 h
[10] = Inhibition of CD74-ROS1 G2032R mutant (unknown origin) expressed in mouse Ba/F3 cells assessed as antiproliferative activity incubated for 72 hrs by CellTiter-Glo luciferase-based ATP detection assay; type: cell-based; conditions: BaF3, 72 h
[11] = target: T3, Tyrosine-protein kinase BTK (Homo sapiens, UniProt Q06187); test: Inhibition of wild type BTK (unknown origin)
cells = conditions: Homo sapiens, HN11, 72 h
[12] = target: T2, Protein cereblon/Tyrosine-protein kinase BTK; test: Induction of CRBN-mediated degradation of BTK C481S mutant (unknown origin) expressed in B cells derived from X-linked agammaglobulinemia patient by immunoblot analysis; type: cell-based; conditions: b-cell
[13] = target: T1, Protein cereblon/Tyrosine-protein kinase BTK; test: Induction of CRBN-mediated degradation of wild type BTK (unknown origin) expressed in B cells derived from X-linked agammaglobulinemia patient by immunoblot analysis; type: cell-based; conditions: b-cell
[14] = target: T3, Tyrosine-protein kinase BTK; test: Inhibition of BTK (unknown origin)

T3 sequence (Q06187 whole entry): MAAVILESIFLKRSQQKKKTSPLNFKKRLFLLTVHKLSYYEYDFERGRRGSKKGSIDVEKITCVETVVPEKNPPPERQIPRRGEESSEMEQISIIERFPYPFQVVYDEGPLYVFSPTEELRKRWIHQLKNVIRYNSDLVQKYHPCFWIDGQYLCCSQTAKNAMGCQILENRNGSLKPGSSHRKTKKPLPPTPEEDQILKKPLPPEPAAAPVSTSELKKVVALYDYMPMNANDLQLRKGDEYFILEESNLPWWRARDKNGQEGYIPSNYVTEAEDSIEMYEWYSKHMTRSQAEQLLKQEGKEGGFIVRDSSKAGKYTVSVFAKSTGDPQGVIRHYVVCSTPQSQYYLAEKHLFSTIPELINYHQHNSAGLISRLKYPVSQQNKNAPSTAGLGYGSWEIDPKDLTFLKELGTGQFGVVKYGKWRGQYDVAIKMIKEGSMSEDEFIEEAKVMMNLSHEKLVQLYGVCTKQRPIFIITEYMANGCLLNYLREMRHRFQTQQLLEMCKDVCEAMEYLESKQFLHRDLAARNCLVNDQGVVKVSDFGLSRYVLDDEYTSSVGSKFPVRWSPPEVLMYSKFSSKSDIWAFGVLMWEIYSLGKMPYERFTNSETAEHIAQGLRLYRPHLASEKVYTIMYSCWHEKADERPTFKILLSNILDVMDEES
T1 sequence (Q06187 whole entry): as above
T1 sequence (Q96SW2 whole entry): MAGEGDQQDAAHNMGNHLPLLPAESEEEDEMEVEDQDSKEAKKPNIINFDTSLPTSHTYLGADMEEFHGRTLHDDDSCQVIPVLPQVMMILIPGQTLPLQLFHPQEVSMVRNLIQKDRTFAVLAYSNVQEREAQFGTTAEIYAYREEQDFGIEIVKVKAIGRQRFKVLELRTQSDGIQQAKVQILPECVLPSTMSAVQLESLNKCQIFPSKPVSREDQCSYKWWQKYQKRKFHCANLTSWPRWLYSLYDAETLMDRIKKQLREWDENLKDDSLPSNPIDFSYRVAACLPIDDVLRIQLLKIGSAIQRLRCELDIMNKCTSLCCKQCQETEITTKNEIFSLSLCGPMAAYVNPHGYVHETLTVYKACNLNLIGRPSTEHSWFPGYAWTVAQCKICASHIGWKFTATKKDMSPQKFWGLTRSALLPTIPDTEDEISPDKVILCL
T2 sequence (Q06187 2-659 C481S limits assumed, stated change not applied): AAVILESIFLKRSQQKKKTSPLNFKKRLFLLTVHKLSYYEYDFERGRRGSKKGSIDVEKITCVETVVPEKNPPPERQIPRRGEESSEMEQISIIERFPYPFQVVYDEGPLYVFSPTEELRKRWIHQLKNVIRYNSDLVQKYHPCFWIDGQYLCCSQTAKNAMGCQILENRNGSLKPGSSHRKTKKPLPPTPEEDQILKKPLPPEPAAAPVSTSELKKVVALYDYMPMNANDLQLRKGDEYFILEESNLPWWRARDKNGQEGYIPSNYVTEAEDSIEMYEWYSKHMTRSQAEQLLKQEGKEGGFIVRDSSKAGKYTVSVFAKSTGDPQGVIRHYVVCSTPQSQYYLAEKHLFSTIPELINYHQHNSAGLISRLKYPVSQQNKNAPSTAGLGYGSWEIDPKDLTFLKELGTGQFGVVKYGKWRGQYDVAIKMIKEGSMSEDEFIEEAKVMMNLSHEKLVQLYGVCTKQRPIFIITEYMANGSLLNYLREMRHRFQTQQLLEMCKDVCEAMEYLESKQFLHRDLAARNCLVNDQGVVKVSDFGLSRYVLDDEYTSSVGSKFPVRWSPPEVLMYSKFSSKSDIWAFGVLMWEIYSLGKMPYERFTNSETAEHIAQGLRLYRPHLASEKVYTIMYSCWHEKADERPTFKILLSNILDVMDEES
T2 sequence (Q96SW2 whole entry, stated change not applied): as the sequence (Q96SW2 whole entry) above

CN(C)C/C=C/C(=O)Nc1cc2c(Nc3ccc(F)c(Cl)c3)ncnc2cc1O[C@H]1CCOC1 [AFATINIB]
pIC50 (LoVo): 7.82
pIC50 (NCI-H1975): 7.66

Nc1ncnc2c1c(-c1ccc(Oc3ccccc3)cc1)nn2[C@@H]1CCCN(C(=O)c2cn(CCOCCOCCOCCCc3ccc4c(c3)CN(C3CCC(=O)NC3=O)C4=O)nn2)C1 (some centres undefined)
DC50 [1]: 0.018 µM
DC50 [2]: 0.018 µM
DC50 [3]: 0.018 µM
DC50 [4]: 0.018 µM
DC50 [5]: 0.018 µM
DC50 [6]: 0.018 µM

Cc1cc(Nc2ncc(Cl)c(Nc3ccccc3S(=O)(=O)C(C)C)n2)c(OC(C)C)cc1C1CCNCC1 [CERITINIB]
GI50 [7]: 0.23 µM
GI50 [8]: 0.08 µM

C[C@H]1CNC(=O)c2cnn3ccc(nc23)N[C@H](C)c2cc(F)ccc2O1 [REPOTRECTINIB]
pIC50 [9]: 9.40
pIC50 [10]: 8.48

NC(=O)[C@H]1CCN(c2ncnc(N)c2F)C[C@@H]1N1CCC[C@@H](Nc2cc(Cl)cc(C(F)(F)F)c2)C1=O [VECABRUTINIB]
pIC50 [11]: 8.54

C=CC(=O)Nc1cccc(Oc2nc(Nc3ccc(N4CCN(C)CC4)cc3OC)ncc2Cl)c1
pIC50 (cells): 5.67

Nc1ncnc2c1c(-c1ccc(Oc3ccccc3)cc1)nn2[C@@H]1CCCN(CCOCCOCC(=O)Nc2ccc3c(c2)CN(C2CCC(=O)NC2=O)C3=O)C1 (some centres undefined)
DC50 [12]: 0.0149 µM
DC50 [13]: 0.0146 µM

Cc1c(NC(=O)c2ccc(C(C)(C)C)cc2)cccc1-c1cn(C)c(=O)c(Nc2ccc(C(=O)N3CCN(CCCCCCNC(=O)CNc4cccc5c4C(=O)N(C4CCC(=O)NC4=O)C5=O)CC3)cc2)n1 (centres undefined)
pIC50 [14]: 8.29

C[C@@H](Oc1cc(-c2cnn(C3CCNCC3)c2)cnc1N)c1c(Cl)ccc(F)c1Cl [CRIZOTINIB]
GI50 [7]: 2.88 µM
GI50 [8]: 0.5 µM
